Experiments:
[1] = molecular target: T1, JAK2 (Homo sapiens, UniProt O60674); experiment: Recombinant Human JAK2 Kinase Assay (TRF); format: biochemical; conditions: JAK2 Kinase Inhibition; read-out: JAK2 Potency
T1 construct: host or cells: baculovirus expression system
Procedure, shortened: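 TRF read-out: Eu-N1 PY100 anti-phosphotyrosine antibody detects product. Enzyme is baculovirus-expressed JAK2 at 15 ng/ml; substrate is a biotinyl 15-mer peptide bound to Neutravidin-coated wells. Buffer 20 mM HEPES pH 7.2, 0.2 μM ATP, 1 mM MnCl2, 0.1% BSA, 2.5% DMSO final; 20 min, RT.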

[2] = molecular target: T2, ALK (Homo sapiens, UniProt Q9UM73); experiment: ALK Kinase Assay (ELISA/TRF, PLC-γ substrate); format: biochemical; conditions: ALK Kinase Inhibition; read-out: ALK Potency
T2 construct: host or cells: baculovirus expression system
T2 sequence (Q9UM73 19-1620): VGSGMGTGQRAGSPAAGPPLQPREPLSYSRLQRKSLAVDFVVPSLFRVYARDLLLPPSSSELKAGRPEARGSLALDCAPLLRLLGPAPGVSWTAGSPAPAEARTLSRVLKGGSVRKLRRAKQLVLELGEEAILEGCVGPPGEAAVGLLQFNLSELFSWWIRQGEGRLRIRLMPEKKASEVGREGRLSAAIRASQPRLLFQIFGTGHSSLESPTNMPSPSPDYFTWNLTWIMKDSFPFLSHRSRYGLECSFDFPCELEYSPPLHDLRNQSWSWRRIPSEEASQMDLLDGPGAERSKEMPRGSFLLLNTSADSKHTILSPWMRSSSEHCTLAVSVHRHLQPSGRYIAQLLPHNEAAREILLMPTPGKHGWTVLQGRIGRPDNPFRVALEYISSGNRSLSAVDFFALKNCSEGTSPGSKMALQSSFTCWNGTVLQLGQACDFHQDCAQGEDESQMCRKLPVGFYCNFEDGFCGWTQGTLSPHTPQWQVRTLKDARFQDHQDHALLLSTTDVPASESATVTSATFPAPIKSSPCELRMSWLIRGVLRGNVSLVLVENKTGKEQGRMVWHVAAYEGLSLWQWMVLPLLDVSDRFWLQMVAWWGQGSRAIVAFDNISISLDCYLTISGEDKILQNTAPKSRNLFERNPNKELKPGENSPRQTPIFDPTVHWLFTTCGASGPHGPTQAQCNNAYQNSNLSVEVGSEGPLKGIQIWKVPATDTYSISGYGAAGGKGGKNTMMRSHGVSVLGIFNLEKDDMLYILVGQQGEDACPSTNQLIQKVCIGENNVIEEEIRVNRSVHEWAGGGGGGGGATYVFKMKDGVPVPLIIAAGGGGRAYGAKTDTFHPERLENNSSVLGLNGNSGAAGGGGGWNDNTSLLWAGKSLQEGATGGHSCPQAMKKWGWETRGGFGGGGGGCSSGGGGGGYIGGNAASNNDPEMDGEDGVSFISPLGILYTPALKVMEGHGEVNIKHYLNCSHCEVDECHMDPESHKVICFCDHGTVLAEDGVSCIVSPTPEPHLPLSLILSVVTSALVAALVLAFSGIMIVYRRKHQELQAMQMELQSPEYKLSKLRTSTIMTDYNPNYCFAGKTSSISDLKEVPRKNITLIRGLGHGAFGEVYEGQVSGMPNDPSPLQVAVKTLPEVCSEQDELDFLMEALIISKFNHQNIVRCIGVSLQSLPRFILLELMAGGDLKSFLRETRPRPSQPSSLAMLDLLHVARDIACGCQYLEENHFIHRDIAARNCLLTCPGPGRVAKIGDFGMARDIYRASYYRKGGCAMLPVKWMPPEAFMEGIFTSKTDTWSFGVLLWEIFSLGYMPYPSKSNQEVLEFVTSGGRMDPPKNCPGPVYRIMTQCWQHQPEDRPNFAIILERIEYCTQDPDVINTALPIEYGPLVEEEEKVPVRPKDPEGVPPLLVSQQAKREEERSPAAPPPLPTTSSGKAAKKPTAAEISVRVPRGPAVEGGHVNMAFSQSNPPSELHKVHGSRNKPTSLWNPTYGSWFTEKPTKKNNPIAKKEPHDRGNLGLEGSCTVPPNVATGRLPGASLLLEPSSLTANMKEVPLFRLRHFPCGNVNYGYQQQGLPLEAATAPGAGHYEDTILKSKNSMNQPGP
Procedure, shortened: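 PLC-γ coat 10 μg/mL in TBS; ALK 30 ng/ml added to start; 37° C, 15 min; Eu-N1 PT66 antibody detection (TRF). IC50: % inhibition vs log10 [cpd], variable-slope sigmoidal fit.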

T1 sequence (O60674 whole entry): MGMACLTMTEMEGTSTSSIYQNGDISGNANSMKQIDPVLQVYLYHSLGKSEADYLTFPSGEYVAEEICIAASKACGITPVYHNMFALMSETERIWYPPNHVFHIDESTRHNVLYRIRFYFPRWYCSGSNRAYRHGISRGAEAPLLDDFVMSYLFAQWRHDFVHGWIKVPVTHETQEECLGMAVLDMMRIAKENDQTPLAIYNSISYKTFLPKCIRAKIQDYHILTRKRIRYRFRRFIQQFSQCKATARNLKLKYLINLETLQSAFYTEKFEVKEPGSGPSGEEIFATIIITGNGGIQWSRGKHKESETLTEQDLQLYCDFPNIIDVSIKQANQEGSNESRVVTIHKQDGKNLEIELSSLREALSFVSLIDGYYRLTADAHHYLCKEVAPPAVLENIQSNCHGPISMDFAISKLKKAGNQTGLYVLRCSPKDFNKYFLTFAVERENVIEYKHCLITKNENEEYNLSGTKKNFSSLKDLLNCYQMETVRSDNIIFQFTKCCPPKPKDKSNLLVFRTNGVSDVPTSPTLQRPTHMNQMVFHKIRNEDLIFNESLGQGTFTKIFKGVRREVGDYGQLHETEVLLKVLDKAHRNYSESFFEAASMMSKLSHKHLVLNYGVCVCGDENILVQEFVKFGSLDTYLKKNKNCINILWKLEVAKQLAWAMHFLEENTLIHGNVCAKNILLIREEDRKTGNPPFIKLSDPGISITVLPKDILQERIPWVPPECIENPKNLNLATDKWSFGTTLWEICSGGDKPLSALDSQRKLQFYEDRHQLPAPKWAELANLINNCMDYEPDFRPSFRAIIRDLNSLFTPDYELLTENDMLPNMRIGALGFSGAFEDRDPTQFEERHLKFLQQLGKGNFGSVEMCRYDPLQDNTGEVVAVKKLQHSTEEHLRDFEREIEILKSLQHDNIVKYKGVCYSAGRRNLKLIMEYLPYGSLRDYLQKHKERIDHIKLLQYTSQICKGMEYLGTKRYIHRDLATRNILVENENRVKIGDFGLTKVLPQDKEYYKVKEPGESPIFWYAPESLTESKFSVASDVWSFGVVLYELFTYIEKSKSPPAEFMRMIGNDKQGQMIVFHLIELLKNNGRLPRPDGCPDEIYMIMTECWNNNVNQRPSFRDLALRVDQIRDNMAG

Structure (SMILES) | IC50 [1] [µM] | IC50 [2] [µM]
COc1ccc(Cl)cc1-c1ccc2cnc(Nc3cccc(N4CCN(C[C@@H](C)O)CC4)c3)nn12 [Example 214, (R)-1-(4-{3-[7-(5-Chloro-2-methoxy-phenyl)-pyrrolo[2,1-f][1,2,4]triazin-2-ylamino]-phenyl}-piperazin-1-yl)-propan-2-ol] | < 0.1 | < 0.1
C[C@@H](O)CN1CCN(c2cccc(Nc3ncc4ccc(-c5cccc(Cl)c5)n4n3)c2)CC1 [Example 215, (R)-1-(4-{3-[7-(3-Chloro-phenyl)-pyrrolo[2,1-f][1,2,4]triazin-2-ylamino]-phenyl}-piperazin-1-yl)-propan-2-ol] | < 0.1 | < 0.1
C[C@H](O)CN1CCN(c2cccc(Nc3ncc4ccc(-c5ccc(S(C)(=O)=O)cc5)n4n3)c2)CC1 [Example 216, (S)-1-(4-{3-[7-(4-Methanesulfonyl-phenyl)-pyrrolo[2,1-f][1,2,4]triazin-2-ylamino]-phenyl}-piperazin-1-yl)-propan-2-ol] | < 0.1 | 0.1 to 1
C[C@@H](O)CN1CCN(c2cccc(Nc3ncc4ccc(-c5ccc(S(C)(=O)=O)cc5)n4n3)c2)CC1 [Example 217, (R)-1-(4-{3-[7-(4-Methanesulfonyl-phenyl)-pyrrolo[2,1-f][1,2,4]triazin-2-ylamino]-phenyl}-piperazin-1-yl)-propan-2-ol] | < 0.1 | 0.1 to 1
COc1ccccc1-c1ccc2cnc(Nc3cccc(N4CCN(CC(C)(C)O)CC4)c3)nn12 [Example 218, 1-(4-{3-[7-(2-Methoxy-phenyl)-pyrrolo[2,1-f][1,2,4]triazin-2-ylamino]-phenyl}-piperazin-1-yl)-2-methyl-propan-2-ol] | < 0.1 | < 0.1
COc1ccc(Cl)cc1-c1ccc2cnc(Nc3cccc(N4CCN(CC(C)(C)O)CC4)c3)nn12 [Example 219, 1-(4-{3-[7-(5-Chloro-2-methoxy-phenyl)-pyrrolo[2,1-f][1,2,4]triazin-2-ylamino]-phenyl}-piperazin-1-yl)-2-methyl-propan-2-ol] | < 0.1 | < 0.1
CC(C)(O)CN1CCN(c2cccc(Nc3ncc4ccc(-c5cccc(Cl)c5)n4n3)c2)CC1 [Example 220, 1-(4-{3-[7-(3-Chloro-phenyl)-pyrrolo[2,1-f][1,2,4]triazin-2-ylamino]-phenyl}-piperazin-1-yl)-2-methyl-propan-2-ol] | < 0.1 | 0.1 to 1
COc1ccccc1-c1ccc2cnc(Nc3ccc(N4CCN(CC(C)(C)O)CC4)cc3)nn12 [Example 221, 1-(4-{4-[7-(2-Methoxy-phenyl)-pyrrolo[2,1-f][1,2,4]triazin-2-ylamino]-phenyl}-piperazin-1-yl)-2-methyl-propan-2-ol] | < 0.1 | < 0.1
COc1ccc(Cl)cc1-c1ccc2cnc(Nc3ccc(N4CCN(CC(C)(C)O)CC4)cc3)nn12 [Example 222, 1-(4-{4-[7-(5-Chloro-2-methoxy-phenyl)-pyrrolo[2,1-f][1,2,4]triazin-2-ylamino]-phenyl}-piperazin-1-yl)-2-methyl-propan-2-ol] | < 0.1 | < 0.1
CC(C)(O)CN1CCN(c2ccc(Nc3ncc4ccc(-c5cccc(Cl)c5)n4n3)cc2)CC1 [Example 223, 1-(4-{4-[7-(3-Chloro-phenyl)-pyrrolo[2,1-f][1,2,4]triazin-2-ylamino]-phenyl}-piperazin-1-yl)-2-methyl-propan-2-ol] | < 0.1 | < 0.1
COc1cc(N2CCN(C3CCN(C)CC3)CC2)ccc1Nc1ncc2ccc(-c3ccccc3OC)n2n1 [Example 231, {2-Methoxy-4-[4-(1-methyl-piperidin-4-yl)-piperazin-1-yl]-phenyl}-[7-(2-methoxy-phenyl)-pyrrolo[2,1-f][1,2,4]triazin-2-yl]-amine] | < 0.1 | < 0.1
COc1cc(N2CCCC(N3CCN(C(C)=O)CC3)C2)ccc1Nc1ncc2ccc(-c3ccccc3OC)n2n1 (stereo not drawn) [Example 232, 1-[4-(1-{3-Methoxy-4-[7-(2-methoxy-phenyl)-pyrrolo[2,1-f][1,2,4]triazin-2-ylamino]-phenyl}-piperidin-3-yl)-piperazin-1-yl]-ethanone] | < 0.1 | < 0.1

Source: US8471005B2 (Cephalon, Inc., priority 2008, dated 2013)
